Series [1] concerns the target T1, Ubiquitin carboxyl-terminal hydrolase 1 (Homo sapiens, UniProt O94782).
T1 sequence (O94782 whole entry): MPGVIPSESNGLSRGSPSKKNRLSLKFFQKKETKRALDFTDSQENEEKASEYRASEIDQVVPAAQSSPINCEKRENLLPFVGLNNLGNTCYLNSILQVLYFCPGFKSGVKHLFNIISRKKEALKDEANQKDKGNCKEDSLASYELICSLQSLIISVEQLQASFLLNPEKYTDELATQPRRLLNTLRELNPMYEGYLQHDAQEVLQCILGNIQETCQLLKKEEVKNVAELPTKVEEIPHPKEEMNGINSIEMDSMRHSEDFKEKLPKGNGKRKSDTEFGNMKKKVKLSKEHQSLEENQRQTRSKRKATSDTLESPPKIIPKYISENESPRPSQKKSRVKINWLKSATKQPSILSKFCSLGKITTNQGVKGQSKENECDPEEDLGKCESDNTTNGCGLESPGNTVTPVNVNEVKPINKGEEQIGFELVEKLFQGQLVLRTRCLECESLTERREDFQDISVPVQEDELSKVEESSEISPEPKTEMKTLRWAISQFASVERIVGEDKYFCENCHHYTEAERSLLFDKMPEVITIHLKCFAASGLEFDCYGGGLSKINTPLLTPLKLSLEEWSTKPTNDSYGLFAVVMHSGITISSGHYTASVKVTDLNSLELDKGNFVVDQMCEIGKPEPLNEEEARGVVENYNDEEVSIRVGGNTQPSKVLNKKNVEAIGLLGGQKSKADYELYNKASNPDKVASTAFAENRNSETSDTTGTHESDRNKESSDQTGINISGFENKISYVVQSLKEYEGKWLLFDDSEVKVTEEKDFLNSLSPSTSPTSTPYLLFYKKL
The experiment in a line: Inhibition of His6-tagged human USP1 expressed in insect Sf21 cells coexpressing untagged UAF1 assessed as cleavage of Ubiquitin-Rhodamine110-glycine to Ubiquitin and Rhodamine110-glycine using Ubiquitin-Rhodamine110-glycine as substrate by fluorescence based analysis.

Series [2] has as its target Ubiquitin carboxyl-terminal hydrolase 6 (Homo sapiens, UniProt P35125). The experiment in a line: Inhibition of human GST-tagged USP6 CD (529 to 1406 residues) expressed in Sf21 insect cells assessed as cleavage of Ubiquitin-Rhodamine110-glycine to Ubiquitin and Rhodamine110-glycine using Ubiquitin-Rhodamine110-glycine as substrate by fluorescence based analysis.
Series [3] can be described thus: AUC in Sprague-Dawley rat at 2 mg/kg, po. In kind it is ADME, organism-based. To be noted: in vivo.
Series [4] concerns the target Ubiquitin carboxyl-terminal hydrolase 35 (Homo sapiens, UniProt Q9P2H5). Kind of series: Inhibition of USP35 (unknown origin).
For series [5], the target named is Ubiquitin carboxyl-terminal hydrolase 20 (Homo sapiens, UniProt Q9Y2K6). The experiment in a line: Inhibition of human GST-tagged USP20 expressed in Sf21 insect cells assessed as cleavage of Ubiquitin-Rhodamine110-glycine to Ubiquitin and Rhodamine110-glycine using Ubiquitin-Rhodamine110-glycine as substrate by fluorescence based analysis.
Series [6] has as its target Ubiquitin carboxyl-terminal hydrolase 4 (Homo sapiens, UniProt Q13107). The experiment in a line: Inhibition of human 6His-tagged USP4 expressed in Escherichia coli assessed as cleavage of Ubiquitin-Rhodamine110-glycine to Ubiquitin and Rhodamine110-glycine using Ubiquitin-Rhodamine110-glycine as substrate by fluorescence based analysis.
Another series has as its target Cytochrome P450 3A4 (Homo sapiens, UniProt P08684). The experiment in a line: Inhibition of CYP3A4 (unknown origin). Format: ADME.
The target in series [7] is Ubiquitin carboxyl-terminal hydrolase 8 (Homo sapiens, UniProt P40818). Kind of series: Inhibition of human USP8 expressed in Escherichia coli assessed as cleavage of Ubiquitin-Rhodamine110-glycine to Ubiquitin and Rhodamine110-glycine using Ubiquitin-Rhodamine110-glycine as substrate by fluorescence based analysis.
The target of series [8] is Ubiquitin carboxyl-terminal hydrolase 14 (Homo sapiens, UniProt P54578). Kind of series: Inhibition of human His6-tagged USP14 expressed in Escherichia coli using Ubiquitin-Rhodamine110-glycine as substrate by fluorescence based analysis.
The next series is filed under the species Homo sapiens. The experiment in a line: Selectivity index, ratio of IC50 for human GST-tagged VCPIP CD (25 to 561 residues) expressed in Escherichia coli assessed as cleavage of Ubiquitin-Rhodamine110-glycine to Ubiquitin and Rhodamine110-glycine using Ubiquitin-Rhodamine110-glycine as substrate by fluorescence based analysis to IC50 for inhibition of recombinant full length USP7 (unknown origin) using ubiquintin-rhodamine as substrate preincubated for 30 mins followed by substrate addition measured after 1 hr by fluorescence-based Envision plate reader assay.

The target in series [9] is Ubiquitin carboxyl-terminal hydrolase 45 (Homo sapiens, UniProt Q70EL2). Kind of series: Inhibition of USP45 (unknown origin).
In another series the target is Deubiquitinase OTUD6B (Homo sapiens, UniProt Q8N6M0). Kind of series: Inhibition of human GST-tagged OTUD6B expressed in Escherichia coli assessed as cleavage of Ubiquitin-Rhodamine110-glycine to Ubiquitin and Rhodamine110-glycine using Ubiquitin-Rhodamine110-glycine as substrate by fluorescence based analysis.
Series [10] addresses Ubiquitin carboxyl-terminal hydrolase BAP1 (Homo sapiens, UniProt Q92560). Kind of series: Inhibition of human GST-tagged BAP1 expressed in Escherichia coli assessed as cleavage of Ubiquitin-Rhodamine110-glycine to Ubiquitin and Rhodamine110-glycine using Ubiquitin-Rhodamine110-glycine as substrate by fluorescence based analysis.

Ubiquitin carboxyl-terminal hydrolase BAP1, sequence (Q92560 whole entry): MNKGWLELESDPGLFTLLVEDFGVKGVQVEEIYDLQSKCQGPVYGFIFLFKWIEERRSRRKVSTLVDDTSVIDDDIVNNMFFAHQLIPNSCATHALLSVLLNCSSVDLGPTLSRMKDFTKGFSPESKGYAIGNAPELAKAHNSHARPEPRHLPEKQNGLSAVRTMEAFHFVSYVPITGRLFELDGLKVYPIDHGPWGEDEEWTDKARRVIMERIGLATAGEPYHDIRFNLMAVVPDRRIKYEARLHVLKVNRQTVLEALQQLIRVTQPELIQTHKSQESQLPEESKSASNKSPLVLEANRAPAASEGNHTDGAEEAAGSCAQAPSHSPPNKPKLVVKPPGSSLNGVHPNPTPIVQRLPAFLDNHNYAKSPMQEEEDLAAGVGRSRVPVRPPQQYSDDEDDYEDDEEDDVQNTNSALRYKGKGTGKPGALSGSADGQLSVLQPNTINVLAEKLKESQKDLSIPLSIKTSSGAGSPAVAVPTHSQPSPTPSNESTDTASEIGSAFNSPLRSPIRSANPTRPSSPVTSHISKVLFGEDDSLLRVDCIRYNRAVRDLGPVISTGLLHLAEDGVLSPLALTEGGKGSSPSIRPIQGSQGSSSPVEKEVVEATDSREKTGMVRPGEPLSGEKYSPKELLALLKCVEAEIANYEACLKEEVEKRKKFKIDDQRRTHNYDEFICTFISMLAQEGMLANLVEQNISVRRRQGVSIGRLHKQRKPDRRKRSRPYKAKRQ
Deubiquitinase OTUD6B, sequence (Q8N6M0 whole entry): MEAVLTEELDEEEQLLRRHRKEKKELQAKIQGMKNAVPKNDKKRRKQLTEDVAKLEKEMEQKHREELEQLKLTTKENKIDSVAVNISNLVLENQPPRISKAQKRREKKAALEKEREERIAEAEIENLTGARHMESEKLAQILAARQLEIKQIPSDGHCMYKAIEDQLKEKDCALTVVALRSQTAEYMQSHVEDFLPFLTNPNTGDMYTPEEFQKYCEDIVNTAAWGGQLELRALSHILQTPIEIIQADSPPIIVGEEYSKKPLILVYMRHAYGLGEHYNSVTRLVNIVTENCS
Ubiquitin carboxyl-terminal hydrolase 4, sequence (Q13107 whole entry): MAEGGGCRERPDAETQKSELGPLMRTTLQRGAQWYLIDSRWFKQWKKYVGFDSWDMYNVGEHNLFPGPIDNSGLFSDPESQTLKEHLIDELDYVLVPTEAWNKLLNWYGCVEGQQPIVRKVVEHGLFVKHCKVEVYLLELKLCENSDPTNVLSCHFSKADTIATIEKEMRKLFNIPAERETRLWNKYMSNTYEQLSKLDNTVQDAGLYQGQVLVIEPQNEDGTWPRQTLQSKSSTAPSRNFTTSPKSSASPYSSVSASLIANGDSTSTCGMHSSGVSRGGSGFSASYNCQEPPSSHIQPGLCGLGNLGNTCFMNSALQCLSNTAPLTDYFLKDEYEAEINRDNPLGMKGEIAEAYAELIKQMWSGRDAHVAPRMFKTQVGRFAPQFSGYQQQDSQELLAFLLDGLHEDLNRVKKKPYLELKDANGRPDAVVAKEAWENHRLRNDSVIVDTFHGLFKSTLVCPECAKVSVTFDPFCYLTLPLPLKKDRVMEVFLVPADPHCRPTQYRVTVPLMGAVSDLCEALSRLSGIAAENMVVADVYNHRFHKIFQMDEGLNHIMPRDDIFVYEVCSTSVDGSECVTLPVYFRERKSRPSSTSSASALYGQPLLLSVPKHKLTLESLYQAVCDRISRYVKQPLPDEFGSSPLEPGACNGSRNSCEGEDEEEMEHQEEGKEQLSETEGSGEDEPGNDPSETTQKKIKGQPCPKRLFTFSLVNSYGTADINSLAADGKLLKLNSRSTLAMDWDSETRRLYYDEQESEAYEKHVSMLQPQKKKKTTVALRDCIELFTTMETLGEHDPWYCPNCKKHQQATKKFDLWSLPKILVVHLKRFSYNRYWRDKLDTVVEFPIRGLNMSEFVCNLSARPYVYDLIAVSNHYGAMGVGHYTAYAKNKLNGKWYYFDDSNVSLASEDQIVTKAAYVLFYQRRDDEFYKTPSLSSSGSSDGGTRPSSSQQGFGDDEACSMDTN
Ubiquitin carboxyl-terminal hydrolase 6, sequence (P35125 whole entry, the tested form may be a part): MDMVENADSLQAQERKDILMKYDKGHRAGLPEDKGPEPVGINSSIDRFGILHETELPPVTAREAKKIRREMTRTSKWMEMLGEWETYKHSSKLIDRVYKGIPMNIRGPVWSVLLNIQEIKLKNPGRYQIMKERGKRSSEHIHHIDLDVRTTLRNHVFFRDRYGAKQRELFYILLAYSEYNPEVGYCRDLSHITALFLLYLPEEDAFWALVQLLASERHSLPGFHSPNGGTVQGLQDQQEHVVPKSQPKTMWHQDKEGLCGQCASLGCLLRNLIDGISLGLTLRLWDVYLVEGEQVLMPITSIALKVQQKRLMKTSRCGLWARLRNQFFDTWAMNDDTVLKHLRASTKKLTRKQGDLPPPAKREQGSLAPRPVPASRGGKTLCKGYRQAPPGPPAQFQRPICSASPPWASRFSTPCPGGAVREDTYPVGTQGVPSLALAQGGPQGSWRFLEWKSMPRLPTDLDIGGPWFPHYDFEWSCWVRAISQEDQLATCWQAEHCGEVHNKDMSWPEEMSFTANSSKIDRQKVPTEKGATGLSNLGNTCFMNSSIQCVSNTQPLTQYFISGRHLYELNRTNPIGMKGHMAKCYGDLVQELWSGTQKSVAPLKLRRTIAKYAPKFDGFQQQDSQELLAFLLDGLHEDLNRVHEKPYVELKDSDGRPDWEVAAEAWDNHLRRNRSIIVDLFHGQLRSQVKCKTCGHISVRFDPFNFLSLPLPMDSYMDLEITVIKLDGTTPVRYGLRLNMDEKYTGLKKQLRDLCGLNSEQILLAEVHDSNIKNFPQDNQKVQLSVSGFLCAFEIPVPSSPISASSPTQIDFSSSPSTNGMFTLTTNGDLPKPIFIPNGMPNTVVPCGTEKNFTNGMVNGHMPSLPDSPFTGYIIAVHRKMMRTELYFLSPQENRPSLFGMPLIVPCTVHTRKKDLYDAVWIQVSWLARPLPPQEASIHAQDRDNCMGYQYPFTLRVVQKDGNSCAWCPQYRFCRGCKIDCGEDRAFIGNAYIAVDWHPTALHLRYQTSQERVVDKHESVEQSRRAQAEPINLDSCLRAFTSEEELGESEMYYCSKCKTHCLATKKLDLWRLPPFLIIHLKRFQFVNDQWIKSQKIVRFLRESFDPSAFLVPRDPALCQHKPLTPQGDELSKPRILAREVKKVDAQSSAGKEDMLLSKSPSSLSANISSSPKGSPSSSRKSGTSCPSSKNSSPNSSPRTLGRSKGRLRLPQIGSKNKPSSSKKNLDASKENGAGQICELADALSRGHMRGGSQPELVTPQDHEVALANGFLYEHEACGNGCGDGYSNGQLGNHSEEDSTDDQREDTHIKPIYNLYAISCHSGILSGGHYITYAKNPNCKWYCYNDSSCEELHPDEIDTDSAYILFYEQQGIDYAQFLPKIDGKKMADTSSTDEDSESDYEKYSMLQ
Ubiquitin carboxyl-terminal hydrolase 45, sequence (Q70EL2 whole entry): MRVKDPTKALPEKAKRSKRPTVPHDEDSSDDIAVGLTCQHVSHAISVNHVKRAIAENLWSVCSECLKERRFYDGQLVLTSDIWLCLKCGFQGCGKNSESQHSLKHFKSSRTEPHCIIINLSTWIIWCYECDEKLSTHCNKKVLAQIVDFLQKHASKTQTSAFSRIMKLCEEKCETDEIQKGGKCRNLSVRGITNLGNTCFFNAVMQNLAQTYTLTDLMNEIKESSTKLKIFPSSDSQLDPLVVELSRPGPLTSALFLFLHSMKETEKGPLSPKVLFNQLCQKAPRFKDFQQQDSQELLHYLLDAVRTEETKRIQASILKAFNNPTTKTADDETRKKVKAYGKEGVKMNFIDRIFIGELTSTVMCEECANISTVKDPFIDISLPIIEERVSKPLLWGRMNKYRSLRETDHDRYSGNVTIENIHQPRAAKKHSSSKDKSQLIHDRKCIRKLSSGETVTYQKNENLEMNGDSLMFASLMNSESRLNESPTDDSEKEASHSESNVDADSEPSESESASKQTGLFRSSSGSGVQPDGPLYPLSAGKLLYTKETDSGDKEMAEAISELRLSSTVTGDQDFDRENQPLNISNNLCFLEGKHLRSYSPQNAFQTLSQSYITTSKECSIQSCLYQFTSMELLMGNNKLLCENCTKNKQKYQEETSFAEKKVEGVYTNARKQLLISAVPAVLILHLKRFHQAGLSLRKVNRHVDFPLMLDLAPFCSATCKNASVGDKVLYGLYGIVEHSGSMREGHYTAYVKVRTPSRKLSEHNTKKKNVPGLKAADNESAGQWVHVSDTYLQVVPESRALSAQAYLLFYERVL
Cytochrome P450 3A4, sequence (P08684 whole entry): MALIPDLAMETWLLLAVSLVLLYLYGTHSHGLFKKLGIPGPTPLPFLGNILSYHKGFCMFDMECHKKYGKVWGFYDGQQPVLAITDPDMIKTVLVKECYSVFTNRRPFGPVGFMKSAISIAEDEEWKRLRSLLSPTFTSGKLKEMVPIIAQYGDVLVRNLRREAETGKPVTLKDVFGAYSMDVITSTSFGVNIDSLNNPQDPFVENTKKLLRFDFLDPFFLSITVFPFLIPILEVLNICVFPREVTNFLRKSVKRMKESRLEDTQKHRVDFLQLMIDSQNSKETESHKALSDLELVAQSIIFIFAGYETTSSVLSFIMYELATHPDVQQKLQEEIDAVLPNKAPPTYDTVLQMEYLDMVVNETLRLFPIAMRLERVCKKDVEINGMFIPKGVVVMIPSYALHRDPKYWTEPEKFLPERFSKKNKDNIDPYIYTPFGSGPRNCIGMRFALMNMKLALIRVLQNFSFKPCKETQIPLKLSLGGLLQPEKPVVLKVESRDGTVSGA

For `Cc1cc(Cl)cc(-c2ccnc3cc(CN4C(=O)C5C(C4=O)C5(C)C)sc23)c1O[C@@H]1CCNC[C@@H]1C` (stereo partly drawn), the IC50 in series [1], in series [2], in series [4], in series [5], in series [6] and in series [7] was over 10 µM throughout. Besides, the IC50 (in series [8]; in [9]; at Deubiquitinase OTUD6B; in series [10]) was over 10 µM each time. The AUC (commonly concentration integrated over time) in [3] was 4700 ng·h/mL. The molecule also returned an INH at Cytochrome P450 3A4 of 6.2 µM. In addition, in the series filed under Homo sapiens, the Ratio IC50 was over 50000.

Values taken from ChEMBL document CHEMBL4602719, “Discovery of Potent, Selective, and Orally Bioavailable Inhibitors of USP7 with In Vivo Antitumor Activity” (J Med Chem, 2020).
